Experimental data as given in PubChem BioAssay (NCI).
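Following 48 hours of exposure in 96-well plates, responses at five concentrations were used to interpolate endpoints linearly. GI50: concentration for 50% inhibition of growth. At the TGI there is no net growth.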

Columns and labels:
Assay in all cases: NCI tumour cell line growth inhibition, 48 h
786-0 renal = test system: 786-0 renal
A498 renal = test system: A498 renal
A549 NSCLC = test system: A549 NSCLC
ACHN renal = test system: ACHN renal
BT-549 breast = test system: BT-549 breast
CAKI-1 renal = test system: CAKI-1 renal
CCRF-CEM leukemia = test system: CCRF-CEM leukemia
COLO 205 colon = test system: COLO 205 colon
DU-145 prostate = test system: DU-145 prostate
EKVX NSCLC = test system: EKVX NSCLC
HCC-2998 colon = test system: HCC-2998 colon
HCT-116 colon = test system: HCT-116 colon
HCT-15 colon = test system: HCT-15 colon
HL-60(TB) leukemia = test system: HL-60(TB) leukemia
HOP-62 NSCLC = test system: HOP-62 NSCLC
HOP-92 NSCLC = test system: HOP-92 NSCLC
HS 578T breast = test system: HS 578T breast
HT29 colon = test system: HT29 colon
IGROV1 ovarian = test system: IGROV1 ovarian
K-562 leukemia = test system: K-562 leukemia
KM12 colon = test system: KM12 colon
LOX IMVI melanoma = test system: LOX IMVI melanoma
M14 melanoma = test system: M14 melanoma
MALME-3M melanoma = test system: MALME-3M melanoma
MCF7 breast = test system: MCF7 breast
MDA-MB-231 breast = test system: MDA-MB-231 breast
MDA-MB-435 = test system: MDA-MB-435
MOLT-4 leukemia = test system: MOLT-4 leukemia
NCI-H226 lung = test system: NCI-H226 lung
NCI-H23 lung = test system: NCI-H23 lung
NCI-H460 lung = test system: NCI-H460 lung
NCI-H522 lung = test system: NCI-H522 lung
NCI/ADR-RES ovarian = test system: NCI/ADR-RES ovarian
OVCAR-3 ovarian = test system: OVCAR-3 ovarian
OVCAR-4 ovarian = test system: OVCAR-4 ovarian
OVCAR-5 ovarian = test system: OVCAR-5 ovarian
OVCAR-8 ovarian = test system: OVCAR-8 ovarian
PC-3 prostate = test system: PC-3 prostate
RPMI-8226 leukemia = test system: RPMI-8226 leukemia
RXF 393 renal = test system: RXF 393 renal
SF-268 CNS = test system: SF-268 CNS
SF-295 CNS = test system: SF-295 CNS
SF-539 CNS = test system: SF-539 CNS
SK-MEL-2 melanoma = test system: SK-MEL-2 melanoma
SK-MEL-28 melanoma = test system: SK-MEL-28 melanoma
SK-MEL-5 melanoma = test system: SK-MEL-5 melanoma
SK-OV-3 ovarian = test system: SK-OV-3 ovarian
SN12C renal = test system: SN12C renal
SNB-19 CNS = test system: SNB-19 CNS
SNB-75 CNS = test system: SNB-75 CNS
SR leukemia = test system: SR leukemia
SW-620 colon = test system: SW-620 colon
T-47D breast = test system: T-47D breast
TK-10 renal = test system: TK-10 renal
U251 CNS = test system: U251 CNS
UACC-257 melanoma = test system: UACC-257 melanoma
UACC-62 melanoma = test system: UACC-62 melanoma
UO-31 renal = test system: UO-31 renal

CN[C@@H](C)C(=O)N[C@H](C(=O)N1CCC[C@H]1C(=O)Nc1sc(-c2ncco2)nc1-c1ccccc1)C1CCCCC1
GI50 (786-0 renal): 28.2 µM
TGI (786-0 renal): > 67.2 µM
GI50 (A498 renal): 26.6 µM
TGI (A498 renal): > 88 µM
GI50 (A549 NSCLC): 80.5 µM
TGI (A549 NSCLC): > 100 µM
GI50 (ACHN renal): 19.3 µM
TGI (ACHN renal): > 54.9 µM
GI50 (BT-549 breast): 0.0598 µM
TGI (BT-549 breast): 33.6 µM
GI50 (CAKI-1 renal): 51.8 µM
TGI (CAKI-1 renal): > 100 µM
GI50 (CCRF-CEM leukemia): 32.5 µM
TGI (CCRF-CEM leukemia): > 100 µM
GI50 (COLO 205 colon): 18.7 µM
TGI (COLO 205 colon): 37.9 µM
GI50 (DU-145 prostate): > 95.8 µM
TGI (DU-145 prostate): > 100 µM
GI50 (EKVX NSCLC): 42.9 µM
TGI (EKVX NSCLC): > 100 µM
GI50 (HCC-2998 colon): 25.7 µM
TGI (HCC-2998 colon): 65.7 µM
GI50 (HCT-116 colon): 25.6 µM
TGI (HCT-116 colon): > 85.4 µM
GI50 (HCT-15 colon): 22.6 µM
TGI (HCT-15 colon): > 78.7 µM
GI50 (HL-60(TB) leukemia): 16.9 µM
TGI (HL-60(TB) leukemia): 39.1 µM
GI50 (HOP-62 NSCLC): > 92.2 µM
TGI (HOP-62 NSCLC): > 100 µM
GI50 (HOP-92 NSCLC): 3.52 µM
TGI (HOP-92 NSCLC): 13.4 µM
GI50 (HS 578T breast): 50 µM
TGI (HS 578T breast): > 100 µM
GI50 (HT29 colon): 28.6 µM
TGI (HT29 colon): 68.6 µM
GI50 (IGROV1 ovarian): 47.5 µM
TGI (IGROV1 ovarian): > 100 µM
GI50 (K-562 leukemia): 24.7 µM
TGI (K-562 leukemia): 63.6 µM
GI50 (KM12 colon): 43.3 µM
TGI (KM12 colon): > 100 µM
GI50 (LOX IMVI melanoma): 18.5 µM
TGI (LOX IMVI melanoma): 34.8 µM
GI50 (M14 melanoma): 18.5 µM
TGI (M14 melanoma): 36.7 µM
GI50 (MALME-3M melanoma): 3.91 µM
TGI (MALME-3M melanoma): 19.4 µM
GI50 (MCF7 breast): 21.7 µM
TGI (MCF7 breast): > 100 µM
GI50 (MDA-MB-231 breast): 0.425 µM
TGI (MDA-MB-231 breast): 17.2 µM
GI50 (MDA-MB-435): 26.3 µM
TGI (MDA-MB-435): > 87.9 µM
GI50 (MOLT-4 leukemia): 29.2 µM
TGI (MOLT-4 leukemia): 88.1 µM
GI50 (NCI-H226 lung): > 100 µM
TGI (NCI-H226 lung): > 100 µM
GI50 (NCI-H23 lung): 25.8 µM
TGI (NCI-H23 lung): > 100 µM
GI50 (NCI-H460 lung): 37.7 µM
TGI (NCI-H460 lung): > 100 µM
GI50 (NCI-H522 lung): 10.2 µM
TGI (NCI-H522 lung): 28.1 µM
GI50 (NCI/ADR-RES ovarian): 27.4 µM
TGI (NCI/ADR-RES ovarian): > 83.2 µM
GI50 (OVCAR-3 ovarian): 38.7 µM
TGI (OVCAR-3 ovarian): > 100 µM
GI50 (OVCAR-4 ovarian): 3.26 µM
TGI (OVCAR-4 ovarian): > 100 µM
GI50 (OVCAR-5 ovarian): 38 µM
TGI (OVCAR-5 ovarian): > 64.6 µM
GI50 (OVCAR-8 ovarian): 17.2 µM
TGI (OVCAR-8 ovarian): 42.7 µM
GI50 (PC-3 prostate): 42 µM
TGI (PC-3 prostate): > 100 µM
GI50 (RPMI-8226 leukemia): 25.1 µM
TGI (RPMI-8226 leukemia): > 89.9 µM
GI50 (RXF 393 renal): 8.51 µM
TGI (RXF 393 renal): 32.3 µM
GI50 (SF-268 CNS): 99.7 µM
TGI (SF-268 CNS): > 100 µM
GI50 (SF-295 CNS): 52.9 µM
TGI (SF-295 CNS): > 100 µM
GI50 (SF-539 CNS): 0.957 µM
TGI (SF-539 CNS): 17.8 µM
GI50 (SK-MEL-2 melanoma): 16.3 µM
TGI (SK-MEL-2 melanoma): > 100 µM
GI50 (SK-MEL-28 melanoma): 16.3 µM
TGI (SK-MEL-28 melanoma): 33.9 µM
GI50 (SK-MEL-5 melanoma): 9.93 µM
TGI (SK-MEL-5 melanoma): 24 µM
GI50 (SK-OV-3 ovarian): 0.0336 µM
TGI (SK-OV-3 ovarian): 0.299 µM
GI50 (SN12C renal): 38.9 µM
TGI (SN12C renal): > 71.9 µM
GI50 (SNB-19 CNS): 30 µM
TGI (SNB-19 CNS): 98.7 µM
GI50 (SNB-75 CNS): 12.2 µM
TGI (SNB-75 CNS): 65.4 µM
GI50 (SR leukemia): 14 µM
TGI (SR leukemia): 54.7 µM
GI50 (SW-620 colon): 78.4 µM
TGI (SW-620 colon): > 100 µM
GI50 (T-47D breast): 24.3 µM
TGI (T-47D breast): 82.4 µM
GI50 (TK-10 renal): 57.5 µM
TGI (TK-10 renal): > 100 µM
GI50 (U251 CNS): 26.9 µM
TGI (U251 CNS): > 77.7 µM
GI50 (UACC-257 melanoma): 17.5 µM
TGI (UACC-257 melanoma): 34 µM
GI50 (UACC-62 melanoma): 18.6 µM
TGI (UACC-62 melanoma): 39.2 µM
GI50 (UO-31 renal): 32.1 µM
TGI (UO-31 renal): > 68.9 µM
